Laboratory results from patent US20250270507A1, “METHODS FOR PRODUCING CARTILAGE AND BONES” (Murdoch Children's Research Institute, priority 2021, published 2025).

Columns and labels:
Type in all cases: cell-based, human
MCRIi001-A-2 organoids = assay: Osteogenic differentiation conditions in a second iPSC line; conditions: osteogenic conditions with a CHIR99021 pulse v osteogenic medium alone
Procedure: (§1) Hypertrophic chondrocytes can transdifferentiate into osteoblasts and osteocytes in vivo (Yang et al., 2014; Zhou et al., 2014). To recapitulate this later stage of endochondral bone formation in vitro, hypertrophic chondrocyte pellets in orbital culture were rinsed in PBS then cultured in DMEM, high glucose, GlutaMAX Supplement, pyruvate (ThermoFisher), 20% FBS (ThermoFisher), 10 mM β-glycerophosphate, 50 μg/ml ascorbic acid 2-phosphate, 50 μg/ml sodium ascorbate, 100 nM dexamethasone (osteogenic differentiation media) for up to three weeks. […] Media was replaced every 2-3 days.
Cultured and in vivo grafted pellet organoids were fixed overnight at 4° C. in Confix (Australian Biostain) neutral-buffered formalin, then […] washed in 70% ethanol, and paraffin-embedded. After fixing, some in vivo grafted pellets were washed in water for 10 minutes then decalcified in 14% EDTA, pH 7.4 at 4° C. for 5 days before embedding. Serial 5 μm sections cut from the pellet centers were mounted on Superfrost Plus slides (Menzel-Gläser) and heated at 55° C. overnight. Sections were treated with xylene to remove the paraffin wax and an ethanol series comprising 100%, 90%, 70%, 50% ethanol then water to rehydrate the sections. Sections were stained with toluidine blue to detect a cartilage proteoglycan matrix or safranin O/fast green for cartilage and bone following standard protocols. […]

[1] = test system: MCRIi018-B hypertrophic organoids; assay: Hypertrophic chondrocyte to osteoblast transdifferentiation in vitro
Procedure: as §1, with “days. […]” for “days.”

[2] = test system: iPSC-derived sclerotome pellets (MCRIi018-B); assay: Sclerotome to chondrocyte differentiation in pellet culture (FGF2 v BMP4); conditions: for collagen II extracellular matrix (immunostaining) / collagen X extracellular staining: day 48; for collagen X extracellular staining: static pellets
Procedure: Sclerotome to chondrocyte differentiation was in APEL2 medium containing 5% Protein Free Hybridoma Medium (PFHM II; Thermo Fisher) and 20 ng/ml FGF2. In some experiments BMP4 (R & D Systems) was included at 20 ng/ml. Pellets were routinely transferred to 6 cm non-adherent dishes (Greiner) at the end of either day 6 or day 20; 15-20 pellets per dish in 5 ml of medium with orbital rotation at 60 rpm. The medium was changed every 2-3 days. From day 20 (after 2 weeks of FGF2 treatment), differentiation/maturation continued in APEL2/5% PFHM with medium replaced every 2-3 days for the duration of the chondrogenic differentiation experiments as indicated. In some experiments pellets were treated with FGF2 for 4 weeks post-sclerotome.
(§2) Cultured and in vivo grafted pellet organoids were fixed overnight at 4° C. in Confix (Australian Biostain) neutral-buffered formalin, then […] washed in 70% ethanol, and paraffin-embedded. After fixing, some in vivo grafted pellets were washed in water for 10 minutes then decalcified in 14% EDTA, pH 7.4 at 4° C. for 5 days before embedding. Serial 5 μm sections cut from the pellet centers were mounted on Superfrost Plus slides (Menzel-Gläser) and heated at 55° C. overnight. Sections were treated with xylene to remove the paraffin wax and an ethanol series comprising 100%, 90%, 70%, 50% ethanol then water to rehydrate the sections. Sections were stained with toluidine blue to detect a cartilage proteoglycan matrix or safranin O/fast green for cartilage and bone following standard protocols. Osteogenic pellet sections were also stained with von Kossa to detect mineralization. Images were captured using a Leica DM 2000 LED microscope with Leica Application Suite (LAS) software version 4.9.0 or Zeiss Axio Imager Z2 with Zen 3.1 Blue Edition software.
(§3) Formalin fixed and paraffin-embedded sections were immunostained for collagen II (MAB8887; Sigma-Aldrich; 1:150 dilution), collagen I (LF68; Kerafast ENH018-FP; 1:100), collagen X (Cameron et al., 2015) (1:100), PRG4 (clone 9G3; Merck) (1:100) and Ku80 (Cell Signaling) (1:300). For collagen II staining, antigen retrieval used 2 mg/ml porcine pepsin (Sigma) freshly prepared in 1 M Tris/HCl, pH 2.0 for 30 minutes at 37° C., followed by digestion for 30 minutes at 37° C. with 0.2% hyaluronidase (Sigma-Aldrich) in PBS. Collagen X antigen retrieval involved heating to 60° C. in 10 mM Tris/1 mM EDTA/0.05% Tween-20, pH 9.0 (Tris/EDTA) for 30 min, cooling to room temperature for 30 minutes, followed by hyaluronidase digestion and collagen I and Ku80 staining followed antigen retrieval at 60° C. in Tris/EDTA as above. Sections to be stained with Ku80 were then permeabilized with 0.05% Triton X-100. Sections were blocked with 3% BSA in PBS for 1 hour at room temperature, then incubated with primary antibodies in 1% BSA in PBS for 16 hours at 4° C. Appropriate species specific Alexa Fluor 488 and 594 secondary antibodies (ThermoFisher) were diluted 1:200 in 1% BSA in PBS with 2.5 μg/ml DAPI, and sections incubated for 1 hour at room temperature. Slides were washed with PBS and coverslips mounted using Shandon Immumount (ThermoFisher). Images were captured as described above. For collagen X intracellular colocalization studies sections were treated with 0.2% hyaluronidase at 37° C. for 30 minutes then permeabilized with 0.05% Triton X-100. The collagen X antibody was used at 1:100, 58K (PA1-9000; ThermoFisher) at 1:50, GRP94 (PA5-18534; ThermoFisher) 1:200 and LAMP2 (ab25631; Abcam) 1:50. Images were captured on a Zeiss LSM900 Airyscan 2 confocal microscope with Zen 3.1 Blue Edition software.
RNA was extracted from monolayer cultures using TRIzol […] following the manufacturer's instructions. Typically 100-200 ng total RNA was used for cDNA synthesis in a total volume of 20 μl using the QuantiTect® Reverse Transcription kit (Qiagen) according to the manufacturer's instructions. […]

[3] = test system: iPSC-derived chondroprogenitors (MCRIi019-A); assay: TGFβ3 induction of an articular chondrocyte phenotype; conditions: day 48
Procedure: In some experiments, differentiated chondrocytes were treated with 10 ng/ml TGFβ3 (R&D Systems) for up to 34 days to generate articular cartilage. From day 6, differentiation/maturation continued in APEL2/5% PFHM (with FGF2) for 7 days. From day 13, 10 ng/ml TGFβ3 was added (i.e. FGF2 and TGFβ3) with medium replaced every 2-3 days. At day 20, the pellets were transferred to rotary culture and cultured with 10 ng/ml TGFβ3 (R&D Systems) (and without FGF2) for a further 4 weeks.
as §2, §3
For RNAseq, organoids (2-3 pooled) were snap frozen in liquid nitrogen, pulverized using a liquid nitrogen-cooled tissue grinder and RNA extracted with TRIzol, followed by purification using Direct-zol RNA Microprep kit spin columns (Zymo Research) according to the manufacturer's instructions. RNA samples were quality controlled and sequenced at the Translational Genomics Unit, Murdoch Children's Research Institute. Libraries were constructed using Illumina Stranded mRNA Prep kits and sequenced using a NextSeq 500 to obtain ˜20×10^6 75 bp paired-end reads per sample or a NovaSeq 6000 for 150 bp paired-end reads. […]

[4] = osteogenic conditions with CHIR, RNAseq
[5] = osteogenic conditions with a CHIR pulse, RNAseq
[6] = 20 ng/ml for 14 days post-sclerotome, qRT-PCR
[7] = 20 ng/ml for 14 days post-sclerotome, static culture, day 34

## Cc1cnc(-c2cnc(NCCNc3ccc(C#N)cn3)nc2-c2ccc(Cl)cc2Cl)[nH]1 [CHIR99021, 6-[[2-[[4-(2,4-Dichlorophenyl)-5-(5-methyl-1H-imidazol-2-yl)-2-pyrimidinyl]amino]ethyl]amino]-3-pyridinecarbonitrile]
MCRIi001-A-2 organoids
  aggrecan degradation (toluidine blue): more extensive
[1]; RNAseq
  COL1A1 mRNA expression v osteogenic medium alone: much higher
  bone markers COL3A1, COL5A1 and OMD mRNA v osteogenic medium alone: more highly expressed
  other cartilage markers (SOX9, COMP, IHH, MATN3, CEBPB, COL11A1, COL11A2, COL9A1, COL9A2, COL9A3) mRNA v osteogenic medium alone: downregulated more
[1]; [4]
  COL1A1 upregulation v hypertrophic chondrocytes: 324 fold
  COL1A2 upregulation v hypertrophic chondrocytes: 210 fold
  DMP1 upregulation v hypertrophic chondrocytes: 935 fold
  IBSP upregulation v hypertrophic chondrocytes: 7 fold
  IFITM5 upregulation v hypertrophic chondrocytes: 105 fold
[1]; [5]
  CCDC3 upregulation v hypertrophic chondrocytes: 121 fold
  FAP upregulation v hypertrophic chondrocytes: 64 fold
  POSTN upregulation v hypertrophic chondrocytes: 54 fold
  SFRP4 upregulation v hypertrophic chondrocytes: 4 fold
  TNC upregulation v hypertrophic chondrocytes: 72 fold
[1]; osteogenic medium with 7-day pulse then 2 weeks osteogenic medium alone
  toluidine blue staining: marked reduction in toluidine blue staining
[1]; three weeks
  μCT calcium phosphate mineral: little μCT attenuation
[1]; three weeks, compared between the two osteogenic conditions
  von Kossa staining (matrix mineralization): positive von Kossa staining

## FGF2: FGF pathway activator growth factor (PeproTech) used at 20 ng/ml post-sclerotome
[2]; [6]
  COL2A1 and ACAN gene expression: consistently higher than in BMP4 cultures
[2]; [7]
  toluidine blue staining of pellets: strong toluidine blue staining throughout
[2]
  collagen II extracellular matrix (immunostaining): extensive and uniform collagen II extracellular matrix
  collagen X extracellular staining: strong
[2]; rotary culture from day 6
  toluidine blue staining of pellets: stained throughout with toluidine blue

## TGFβ3: TGF-beta agonist growth factor (R&D Systems) used at 10 ng/ml
[3]; 10 ng/ml from day 13
  PRG4 immunostaining: High uniform PRG4 immunostaining
  chondrocyte morphology: smaller chondrocytes
  collagen II expression (immunostaining): also expressing collagen II
  collagen X (immunostaining): no extracellular collagen X
[3]; RNAseq
  ACAN and HAPLN mRNA: down-regulation
  COL10A1, IBSP, SPP1 and MATN3 mRNA: among the most downregulated
  COMP mRNA v untreated chondronoids: not differentially expressed
  ERG transcription factor mRNA: highly expressed and upregulated
  MEOX1 and MEOX2 mRNA: highly upregulated
  PRG4, ASPN, CILP and CILP2 mRNA v untreated chondronoids: strongly upregulated
  downregulation of COL2A1, COL9A1, COL9A2, COL9A3, COL11A1 mRNA v untreated chondronoids: ≤ 2 fold
  elastic fiber components ELN, LTBP2, TGFBI and MFAP5 mRNA: among the 20 most highly upregulated genes
  hypertrophy transcription factors MEF2C, RUNX2, SP7 and DLX5 mRNA: Among the most strongly downregulated

B1: BMP4: growth factor (R & D Systems) included at 20 ng/ml in some experiments (protein, UniProt P12644 293-408, looked up)
Bone morphogenetic protein 4: SPKHHSQRARKKNKNCRRHSLYVDFSDVGWNDWIVAPPGYQAFYCHGDCPFPLADHLNSTNHAIVQTLVNSVNSSIPKACCVPTELSAISMLYLDEYDKVVLKNYQEMVVEGCGCR
[2]; [6]
  COL10A1 gene expression: expressed earlier
[2]; [7]
  toluidine blue staining of pellets: only isolated areas were toluidine blue positive
[2]; 20 ng/ml for two weeks post-sclerotome, first experiments, data not shown
  expression of key cartilage genes: key cartilage genes were not highly expressed
[2]
  collagen II extracellular matrix (immunostaining): only small foci that were positive for collagen II
  collagen X extracellular staining: only seen in small, localized regions
[2]; transfer to rotary culture at end of day 6
  maintenance of pellets in rotary culture: fragile and could not be maintained in rotary culture
